In series [1] the target is T1, 5-hydroxytryptamine receptor 4 (Homo sapiens, UniProt Q13639). Nature of the series: Displacement of [3H]GR113808 from human 5HT4b receptor expressed in HEK293 cell membranes.
Series [2] deals with T1, 5-hydroxytryptamine receptor 4. Nature of the series: Antagonist activity against human 5HT4b receptor expressed in HEK293 cells assessed as reduction in 5-HT-stimulated adenylyl cyclase activity. It counts as functional, cell-based.
The nature of series [3]: Lipophilicity, log D of the compound at pH 7.4. It counts as physicochemical. The conditions noted are these: buffer.
The target in series [4] is Voltage-gated inwardly rectifying potassium channel KCNH2 (Homo sapiens, UniProt Q12809). In words: Inhibition of human ERG expressed in HEK293 cells assessed as reduction in channel tail current by patch clamp method. The class given is cell-based. In general terms: Patch clamp records ionic current or voltage across a cell membrane.
Chain of Voltage-gated inwardly rectifying potassium channel KCNH2 (Q12809 whole entry): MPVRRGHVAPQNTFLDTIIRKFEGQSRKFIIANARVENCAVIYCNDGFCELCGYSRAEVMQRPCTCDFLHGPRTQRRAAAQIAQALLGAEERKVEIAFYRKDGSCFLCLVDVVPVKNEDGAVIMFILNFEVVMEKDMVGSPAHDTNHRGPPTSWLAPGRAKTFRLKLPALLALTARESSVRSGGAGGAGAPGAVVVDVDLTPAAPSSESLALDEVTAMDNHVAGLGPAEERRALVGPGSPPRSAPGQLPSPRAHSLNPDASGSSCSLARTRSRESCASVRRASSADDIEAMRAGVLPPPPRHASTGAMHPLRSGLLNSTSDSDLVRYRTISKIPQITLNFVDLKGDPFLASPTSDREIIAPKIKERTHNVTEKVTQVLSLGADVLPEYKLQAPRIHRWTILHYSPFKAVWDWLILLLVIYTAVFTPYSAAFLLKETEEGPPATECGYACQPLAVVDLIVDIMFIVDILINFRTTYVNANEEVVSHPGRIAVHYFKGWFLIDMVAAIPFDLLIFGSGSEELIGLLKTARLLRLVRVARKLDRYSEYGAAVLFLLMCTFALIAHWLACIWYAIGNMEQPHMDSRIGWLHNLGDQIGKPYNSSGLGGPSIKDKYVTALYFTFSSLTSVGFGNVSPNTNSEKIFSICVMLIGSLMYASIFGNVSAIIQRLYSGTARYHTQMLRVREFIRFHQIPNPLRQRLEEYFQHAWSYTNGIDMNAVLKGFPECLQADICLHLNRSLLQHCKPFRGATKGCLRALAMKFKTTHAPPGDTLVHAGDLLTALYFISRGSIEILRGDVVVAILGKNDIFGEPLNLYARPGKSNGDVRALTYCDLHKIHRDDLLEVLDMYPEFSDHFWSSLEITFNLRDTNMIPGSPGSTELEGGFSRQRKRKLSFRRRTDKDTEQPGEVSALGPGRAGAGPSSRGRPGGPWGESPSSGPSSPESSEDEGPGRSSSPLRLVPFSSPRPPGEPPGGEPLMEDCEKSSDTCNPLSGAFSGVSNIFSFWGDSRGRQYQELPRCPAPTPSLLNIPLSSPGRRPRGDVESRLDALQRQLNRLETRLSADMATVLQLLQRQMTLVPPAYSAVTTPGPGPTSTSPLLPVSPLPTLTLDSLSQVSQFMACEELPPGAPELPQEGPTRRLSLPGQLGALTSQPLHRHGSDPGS
A short description of series [5]: Elimination half life in Sprague-Dawley rat at 10 mg/kg, po or 1 mg/kg, iv after 30 mins to 6 hrs by LC/MS/MS method. It counts as ADME, organism-based. The conditions noted are these: in vivo, read-out: beta t1/2.
Series [6] can be described thus: Tmax in Sprague-Dawley rat at 10 mg/kg, po or 1 mg/kg, iv after 30 mins to 6 hrs by LC/MS/MS method. It counts as ADME, organism-based. The conditions noted are these: in vivo.
Series [7] is described as follows: Oral bioavailability in Sprague-Dawley rat at 10 mg/kg after 30 mins to 6 hrs by LC/MS/MS method. It counts as ADME, organism-based. The conditions noted are these: in vivo.

15 compounds from ChEMBL document CHEMBL3351578, “Discovery and pharmacological profile of new hydrophilic 5-HT(4) receptor antagonists” (Bioorg Med Chem Lett, 2014) can be followed below.

T1 sequence (Q13639 whole entry): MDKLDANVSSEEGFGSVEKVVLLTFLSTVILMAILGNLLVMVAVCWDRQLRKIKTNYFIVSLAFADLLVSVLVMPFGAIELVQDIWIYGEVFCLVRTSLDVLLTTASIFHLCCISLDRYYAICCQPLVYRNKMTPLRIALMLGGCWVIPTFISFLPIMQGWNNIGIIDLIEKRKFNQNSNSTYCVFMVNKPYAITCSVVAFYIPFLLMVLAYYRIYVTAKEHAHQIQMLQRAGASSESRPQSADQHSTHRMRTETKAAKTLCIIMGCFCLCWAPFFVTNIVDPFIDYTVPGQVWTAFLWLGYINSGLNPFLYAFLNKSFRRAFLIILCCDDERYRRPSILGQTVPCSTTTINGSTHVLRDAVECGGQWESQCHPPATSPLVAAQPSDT

Usually Ki stands for the dissociation constant of the complex between target and ligand, obtained from inhibition or displacement. Lower therefore signals tighter binding. The pKb is the negative decadic logarithm of the Kb, by convention in mol/L. In general, logD refers to lipophilicity at a set pH, counting ionised and neutral species. In series [1], `CC(C)CS(=O)(=O)Nc1ccc(CN2CCC(CNC(=O)c3cccc4c3OCCO4)CC2)cc1` gave a Ki of 0.2 nM. The pKb in series [2] was 8. In series [3], this compound gave a logD of 1.8.
As to `O=C(NCC1CCN(Cc2ccc(NS(=O)(=O)Cc3ccccc3)cc2)CC1)c1c[nH]c2ccccc12`, the affinity in series [1], expressed as Ki, was 1000 nM. The logD in series [3] stood at 1.2.
`CCCCN1CCC(CNC(=O)c2c3n(c4ccccc24)CCCO3)CC1` [PIBOSEROD]: in series [1], the affinity, expressed as Ki, was 0.398 nM. In series [2], the pKb turned out to be 10.5.
On to `O=C(NCC1CCN(Cc2ccc(NS(=O)(=O)C3CCCCC3)cc2)CC1)c1cccc2c1OCCO2`, for which, in series [1], the Ki is 1.26 nM. Further, the pKb in series [2] was 7.6. In series [3], the logD turned out to be 2.5.
The corresponding values for `O=C(OCC1CCN(CC2C3CC4C2C4C3C(=O)O)CC1)c1c2n(c3ccccc13)CCCO2` (stereo not given) are 1.58 nM, 8.4 and 0.7.
The corresponding values for `CS(=O)(=O)Nc1ccc(CN2CCC(CNC(=O)c3cccc4c3OCCO4)CC2)cc1` are 0.2 nM, 8.3 and 0.5.
On to `CC(C)CS(=O)(=O)Nc1ccc(CN2CCC(CNC(=O)c3c4n(c5ccccc35)CCCO4)CC2)cc1`, for which the affinity in series [1], expressed as Ki, was 0.0501 nM. Also, the pKb in series [2] worked out at 9.7. The compound further returned a logD in series [3] of 2.2.
The like results for `CCCCS(=O)(=O)Nc1ccc(CN2CCC(CNC(=O)c3cccc4c3OCCO4)CC2)cc1` were, in that order, 0.251 nM, 8 and 1.8.
As usually defined, the IC50 is the concentration that gives 50% inhibition. As a reminder, the Tmax is the time at which the peak concentration occurs. As a reminder, the bioavailability is dose-corrected exposure relative to a reference, in per cent. Read a high bioavailability as much systemic uptake. Consider `O=C(OCC1CCN(CC(O)CO)CC1)c1c2n(c3ccccc13)CCCO2` (stereo not given), for which affinity in series [1] was put at a Ki of 0.0794 nM. Also, the IC50 in series [4] was found to be 81000 nM. Besides, in series [5], the half-life amounted to 2.5 h. Moreover, the pKb in series [2] was determined as 9.1. Also, in series [6], the Tmax is 2.42 h. For the same compound, in series [3], the logD came to 0.2. Also, the bioavailability in series [7] worked out at 10.3%.
`O=C(NCC1CCN(Cc2ccc(NS(=O)(=O)C3CCCCC3)cc2)CC1)c1c2n(c3ccccc13)CCCO2` had a Ki in series [1] of 0.2 nM. The pKb in series [2] is 8. The logD in series [3] is 2.7.
Regarding `O=C(NCC1CCN(Cc2ccc(NS(=O)(=O)C3CCCCC3)cc2)CC1)c1c[nH]c2ccccc12`, the Ki in series [1] was 501 nM. The compound also registered a logD in series [3] of 0.5.
Take `CC(C(=O)O)c1ccc(CN2CCC(COC(=O)c3c4n(c5ccccc35)CCCO4)CC2)cc1` (stereo not given): the Ki in series [1] is 0.316 nM. Moreover, the IC50 in series [4] stood at 25000 nM. For the same compound, in series [2], the negative-log Kb (pKb) was determined as 8.8. In series [3], the logD was found to be 1.1.
Compound `CS(=O)(=O)Nc1ccc(CN2CCC(CNC(=O)c3c4n(c5ccccc35)CCCO4)CC2)cc1` had a Ki in series [1] of 0.2 nM. For the same compound, the pKb in series [2] came to 8.3. This compound also returned a logD in series [3] of 1.
With `Cn1cc(C(=O)OCC2CCN(CCNS(C)(=O)=O)CC2)c2ccccc21`, the pKb in series [2] was 10.1.
Compound `CCCCS(=O)(=O)Nc1ccc(CN2CCC(CNC(=O)c3c4n(c5ccccc35)CCCO4)CC2)cc1` showed a Ki in series [1] of 1 nM. Moreover, the pKb in series [2] stood at 9.7. The compound further registered a logD in series [3] of 2.2.
